Consider eight compounds from patent US5512305A, “Invitroinhibition of the HIV virus with ionic tungstoniobate compounds” (priority 1990, dated 1996).

The test system of one series is HIV-1 (strain LAV-1). The experiment in a line: Inhibition of virus replication in human PBMC (supernatant reverse transcriptase activity). The format is cell-based. The settings on record: 50% inhibition of RT activity vs untreated controls, six days after infection. Here is the method: (§1) Cells. Human peripheral blood mononuclear cells (PBMC) from healthy HIV-1 seronegative and hepatitis B virus seronegative donors were isolated by Ficoll-Hypaque discontinuous gradient centrifugation at 1,000×g for 30 minutes, washed twice in phosphate-buffered saline (pH 7.2; PBS), and pelleted at 300×g for 10 minutes. Before infection, the cells were stimulated by phytohemagglutinin […] at a concentration of 6 μg/ml for three days in RPMI 1640 medium supplemented with 15% heat-inactivated fetal calf serum, 1.5 mM L-glutamine, penicillin (100 U/ml), streptomycin (100 μg/ml), and 4 mM sodium bicarbonate buffer.
Viruses. HIV-1 (strain LAV-1) was obtained from Dr. P. Feorino (Centers for Disease Control, Atlanta, Ga.). […]
PBMC. […] The mean reverse transcriptase (RT) activity of the inocula was 50,000 decompositions per min/ml corresponding to about 100 TCID50, as determined by Groopman et al. (Groopman et al, AIDS Res. Human Retro. 3, 71-85, 1987. The drugs at twice their final concentration in 5 ml of RPMI 1640 medium, supplemented as described above, were added to the cultures. Uninfected and untreated PBMC at equivalent cell densities were grown in parallel as controls. The cultures were maintained in a humidified 5% CO2 -95% air incubator at 37° C. for six days after infection, at which point all cultures were sampled for supernatant reverse transcriptase (RT) activity. […]
The RT assay was performed in 96-well microtiter plates, as described by Spira et al. (Spira et al, J. Clin. Microbiol. 22, 97-99, 1987). […] Four ml of scintillation fluid (Econofluor, NEN Research Products, Boston, Mass.) were added and the amount of radioactivity in each sample was determined using a Packard Tri-Carb liquid scintillation analyzer (model 2,000CA). […]

For a further series, the system named is HSV-1. The experiment in a line: Plaque reduction assay for herpes simplex in Vero cells. The format is cell-based. The source says:
Cell culture assays for herpes simplex.
Viruses. (HSV-1) Mycoplasma-free Vero cells, obtained from Flow Laboratory (McLean, Va.), were used for plaque assays.
A general note: In a plaque reduction assay, fewer plaques than in the control indicate reduced infectivity or spread.

A further series deals with human PBMC. The series is described as follows: Cytotoxicity assay in uninfected PHA stimulated human PBMC (trypan blue dye-exclusion). The series is classed as cell-based. The settings on record: 6 days, cell viability. Here is the method:
as §1
Cytotoxicity assay. The drugs were evaluated for their potential toxic affects on uninfected PHA stimulated human PBMC. Flasks were seeded so that the final cell concentration was 2×10^5 cells/mi. The cells were cultured with and without drug for 6 days, at which time aliquots were counted for cell viability, as assessed by the trypan blue dye-exclusion method using a hemacytometer. The median inhibitory concentration (IC50) was calculated using the median effect method (Chou et al, Elsevier-Biosoft, Elsevier Science Publishers, Cambridge, U.K., 1985; Chou et al, Adv. Enz. Regul. 22, 27-55, 1984). The results are reported as IC50 PBMC below.

Another series relates to Vero cells. The experiment in a line: Cytotoxicity assay in Vero cells. The series is classed as cell-based.
A further series concerns cells. The settings on record: background statement; cited from earlier work.
The subject of the next series is HIV. The settings on record: Chemical and Engineering News, December 1986; cited from earlier work.
For series [1] the following is noted: compound abandoned; cited from earlier work.
A further series concerns herpes virus. The settings on record: JP 64-38,022; cited from earlier work.
A short description of series [2]: Storage stability / shelf-life. The series is classed as physicochemical.

Me3 NH!8 Si2 W18 Nb6 O77 !: the EC50 is 0.081 µM with HIV-1 (strain LAV-1) and > 1 µM in the series with HSV-1. For the same compound, the IC50 with human PBMC and with Vero cells was > 100 µM each time.

Take “(Me4 N/Na/K)5 Nb3 W3 O19 !.nH2 O [Me4 N/Na/K!5 Nb3 W3 O19 !]”: the EC50 with HIV-1 (strain LAV-1) stood at 8.56 µM; in the series with HSV-1 it was 5.66 µM. The IC50 with human PBMC and with Vero cells was > 100 µM throughout.

Take `Cc1cn([C@H]2C[C@H](N=[N+]=[N-])[C@@H](CO)O2)c(=O)[nH]c1=O` [AZT]: the toxicity to cells entry in the series with cells was “high toxicity to cells”.

Consider silicotungstate acid [H4 SiW12 O40], for which the “activity against HIV” value in the series on HIV is “has activity against HIV”. Also, in [1], the “toxicity in higher animals” value is given as “toxicity in higher animals”.

Turning to K5 BW12 O40, the “activity against herpes virus” value in the series with herpes virus is given as “activity against herpes virus”.

With K7 PW10 Ti2 O40, the “activity against herpes virus” value in the series with herpes virus is recorded as “activity against herpes virus”.

Regarding “(Na/K)6 Nb4 W2 O19 !.nH2 O [Na/K!6 Nb4 W2 O19 !]”, the half-maximal effective concentration (EC50) in the series on HIV-1 (strain LAV-1) is 0.073 µM; in the series on HSV-1, > 100 µM. Besides, the 50% inhibitory concentration (IC50) in the series with human PBMC and in the series on Vero cells was > 100 µM in each case.

Regarding (Me4 N)9 P2 Nb3 W15 O62 !.15H2 O.CH3 CN, in series [2], the stability on storage entry was “stable on storage”.

Broadly, the EC50 is the concentration giving half of the maximal effect. Higher therefore signals a need for much substance. The IC50 is the concentration at which inhibition is half-maximal. Low readings indicate inhibition by little substance, high ones a need for much substance.
